# How the values were obtained:
# Test in all cases: MIC of carbapenems with or without DMSA
# [1] = system: C. freundii MIG; format: cell-based; conditions: VIM-2 + TEM-1 +OXA-9 + OXA-10, no DMSA, unit assumed
# Method: (§1) Minimum inhibitory concentrations (MICs) of carbapenems were determined in-vitro with strains (reference and clinical) producing the three main types of class B carbapenemases which are IMP, VIM and NDM, with or without EDTA and DMSA.
# (§2) MICs of imipenem was determined for E. coli TOP10 pCR2.1-(PNDM-1-blaNDM-1-bleMBL) in the presence of 0, 0.01, 0.1 or 1 mg/ml of Ca-EDTA or DMSA by using the broth microdilution method in zinc-complemented M9CA minimum medium (SD7025, Euromedex, France).
# (§3) A 100 mM DMSA stock solution (Sigma Aldrich, France) (pH 5.0) was prepared in 0.2 M NaOH as recommended (Maiorino et al. 1990) and pH was neutralized to pH 7.0 with NaHCO3 Na2Ca-EDTA (Sigma Aldrich, France) dissolved in water.
# (§4) The strains were as follows: VIM producers (n=10), IMP producers (n=9), NDM-1 producers (n=10). The selected concentration of DMSA was 10-fold (0.3 mM) and 100-fold (3 mM) that of the human peak serum concentration after oral administration (Asiedu et al;, 1995), and that of Ca-EDTA was assayed at the fixed concentration of 0.2 mM (Table 2). […]
# [2] = system: E. cloacae 1008029; format: cell-based; conditions: E. cloacae 1008029, VIM-1 + CTX-M-3; no DMSA; unit assumed
# Method: as §1, §2, §3, §4
# [3] = system: E. cloacae 1008085; format: cell-based; conditions: E. cloacae 1008085, IMP-1; no DMSA; unit assumed
# Method: as §1, §2, §3, §4
# [4] = system: E. cloacae 1008183; format: cell-based; conditions: E. cloacae 1008183, IMP-1; no DMSA; unit assumed
# Method: as §1, §2, §3, §4
# [5] = system: E. cloacae 1008186; format: cell-based; conditions: E. cloacae 1008186, IMP-1; no DMSA; unit assumed
# Method: as §1, §2, §3, §4
# [6] = system: E. cloacae 396715; format: cell-based; conditions: E. cloacae 396715, VIM-1; no DMSA; unit assumed
# Method: as §1, §2, §3, §4
# [7] = system: E. cloacae KOW3; format: cell-based; conditions: E. cloacae KOW3, VIM-1 + CTX-M-15+ TEM-1 + SHV-31; no DMSA; unit assumed
# Method: as §1, §2, §3, §4
# [8] = system: E. cloacae TAW; format: cell-based; conditions: IMP-8, no DMSA, unit assumed
# Method: as §1, §2, §3, §4
# [9] = system: E. coli 0404018; format: cell-based; conditions: E. coli 0404018, VIM-1 + CMY-6; no DMSA; unit assumed
# Method: as §1, §2, §3, §4
# [10] = system: E. coli 1008077; format: cell-based; conditions: E. coli 1008077, VIM-1 + TEM-3; no DMSA; unit assumed
# Method: as §1, §2, §3, §4
# [11] = system: E. coli 1108013; format: cell-based; conditions: E. coli 1108013, IMP-1 + TEM-1; no DMSA; unit assumed
# Method: as §1, §2, §3, §4
# [12] = system: E. coli 162; format: cell-based; conditions: E. coli 162, NDM-5 + TEM-1 +CTX-M-15; no DMSA; unit assumed
# Method: as §1, §2, §3, §4
# [13] = system: E. coli 405; format: cell-based; conditions: E. coli 405, NDM-5 + TEM-1 +CTX-M-15; no DMSA; unit assumed
# Method: as §1, §2, §3, §4
# [14] = system: E. coli ALL; format: cell-based; conditions: NDM-1 + TEM-1 +CTX-M-15+OXA-1 + OXA-2, no DMSA, unit assumed
# Method: as §1, §2, §3, §4
# [15] = system: E. coli BOUN; format: cell-based; conditions: NDM-4 + OXA-1, no DMSA, unit assumed
# Method: as §1, §2, §3, §4
# [16] = system: E. coli COUP; format: cell-based; conditions: NDM-7 + OXA-1 +CTX-M-15, no DMSA, unit assumed
# Method: as §1, §2, §3, §4
# [17] = system: E. coli DIH; format: cell-based; conditions: VIM-19, no DMSA, unit assumed
# Method: as §1, §2, §3, §4
# [18] = system: E. coli FEK; format: cell-based; conditions: NDM-4 + NDM-4 + OXA-1 + CTX-M-15, no DMSA, unit assumed
# Method: as §1, §2, §3, §4
# [19] = system: E. coli IBIS; format: cell-based; conditions: VIM-4, no DMSA, unit assumed
# Method: as §1, §2, §3, §4
# [20] = system: E. coli IR5; format: cell-based; conditions: E. coli IR5, NDM-1 + TEM-1 +CTX-M-15; no DMSA; unit assumed
# Method: as §1, §2, §3, §4
# [21] = system: E. coli JAP; format: cell-based; conditions: IMP-1, no DMSA, unit assumed
# Method: as §1, §2, §3, §4
# [22] = system: E. coli MAD; format: cell-based; conditions: VIM-1 + CTX-M-3, no DMSA, unit assumed
# Method: as §1, §2, §3, §4
# [23] = system: E. coli RIC; format: cell-based; conditions: NDM-1 + CMY-16 + OXA-1 + OXA-10, no DMSA, unit assumed
# Method: as §1, §2, §3, §4
# [24] = system: K.p. 0709124; format: cell-based, K. pneumoniae; conditions: K.p. 0709124, IMP-1b + TEM-15; no DMSA; unit assumed
# Method: as §1, §2, §3, §4
# [25] = system: K.p. 6852; format: cell-based, K. pneumoniae; conditions: K.p. 6852, IMP-1 + SHV-5; no DMSA; unit assumed
# Method: as §1, §2, §3, §4
# [26] = system: K.p. KIE; format: cell-based, K. pneumoniae; conditions: NDM-1 + SHV-38 + CMY-16 + OXA-10, no DMSA, unit assumed
# Method: as §1, §2, §3, §4
# [27] = system: K.p. OMA1; format: cell-based, K. pneumoniae; conditions: K.p. OMA1, NDM-1 + TEM-1 +CTX-M-15+ SHV-28 + OXA-1 + OXA-9; no DMSA; unit assumed
# Method: as §1, §2, §3, §4
# [28] = system: K.p. ROUM; format: cell-based, K. pneumoniae; conditions: VIM, no DMSA, unit assumed
# Method: as §1, §2, §3, §4
# [29] = system: K.p. TAW; format: cell-based, K. pneumoniae; conditions: IMP-8 + SHV-5, no DMSA, unit assumed
# Method: as §1, §2, §3, §4
smiles,measurement,setting,value
"C[C@@H](O)[C@H]1C(=O)N2C(C(=O)O)=C(S[C@@H]3CN[C@H](C(=O)Nc4cccc(C(=O)O)c4)C3)[C@H](C)[C@H]12 [ETP, ertapenem]",MIC,[1],2 µg/mL
same,MIC,[2],> 32 µg/mL
same,MIC,[3],8 µg/mL
same,MIC,[4],8 µg/mL
same,MIC,[5],32 µg/mL
same,MIC,[6],2 µg/mL
same,MIC,[7],> 32 µg/mL
same,MIC,[8],4 µg/mL
same,MIC,[9],4 µg/mL
same,MIC,[10],> 32 µg/mL
same,MIC,[11],32 µg/mL
same,MIC,[12],> 32 µg/mL
same,MIC,[13],> 32 µg/mL
same,MIC,[14],16 µg/mL
same,MIC,[15],16 µg/mL
same,MIC,[16],32 µg/mL
same,MIC,[17],8 µg/mL
same,MIC,[18],> 32 µg/mL
same,MIC,[19],2 µg/mL
same,MIC,[20],32 µg/mL
same,MIC,[21],0.5 µg/mL
same,MIC,[22],0.25 µg/mL
same,MIC,[23],8 µg/mL
same,MIC,[24],32 µg/mL
same,MIC,[25],> 32 µg/mL
same,MIC,[26],4 µg/mL
same,MIC,[27],> 32 µg/mL
same,MIC,[28],> 32 µg/mL
same,MIC,[29],0.5 µg/mL

# — EP2979694B1, “Dimercaptosuccinic acid for the treatment of multidrug resistant bacterial infections” (priority 2014, dated 2016)
